Source: US20250123280A1, “LABEL-FREE DETECTION OF PROTEASE ACTIVITY” (OREGON HEALTH & SCIENCE UNIVERSITY, priority 2021, published 2025)
Peptide text beside a SMILES is read from it. * marks the point of attachment. Fmoc = O=C(OCC1c2ccccc2-c2ccccc21)*

What was measured:
[1] = biological target: T1, legumain (Mus musculus, UniProt O89017); assay: Legumain activity detection in human plasma (peptide 1/ThT); assay type: biochemical
T1 construct: purchased Novus Biologicals
T1 sequence (O89017 18-325 limits assumed): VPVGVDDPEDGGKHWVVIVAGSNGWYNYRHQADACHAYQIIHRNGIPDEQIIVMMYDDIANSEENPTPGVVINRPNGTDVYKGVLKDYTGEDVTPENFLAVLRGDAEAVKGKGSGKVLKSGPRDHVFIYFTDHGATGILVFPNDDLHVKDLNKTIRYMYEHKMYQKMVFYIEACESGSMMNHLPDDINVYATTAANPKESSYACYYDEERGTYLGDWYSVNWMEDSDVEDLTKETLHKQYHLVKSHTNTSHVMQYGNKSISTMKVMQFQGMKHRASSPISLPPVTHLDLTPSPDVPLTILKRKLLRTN
Description: In the peptide concentration experiment, appropriate amounts of peptide 1 stock solution (10 mg/mL) were diluted in PBS and mixed with the MES buffer containing legumain, as described above, to give the final peptide concentrations between 0.05 and 1 mg/mL in the assay. In kinetic studies, ThT solution was mixed with the peptide immediately before the addition of activated legumain, and the plate was incubated in a Spark 20M microplate reader (Tecan) at 37° C. for 3 hours, and ThT fluorescence was recorded every 4 minutes. For the inhibitor experiment, the legumain inhibitor, RR-11a, was first dissolved in DMSO (1 mM), and appropriate amounts of inhibitor were incubated with legumain for about 1.0 hour at room temperature in 96 well plates. Finally, the legumain solutions incubated with different amounts of inhibitor were mixed with the peptide 1 solution, and the assay was performed as described above. […]
To assess the possibility of using the developed self-assembling polypeptides and methods in complex biological environments, legumain detection experiments in human plasma were performed. In initial studies, a background fluorescence signal in plasma (20%) was detected due to the nonspecific interactions between ThT and plasma proteins (see FIG. 24A) (Rovnyagina, N. R. et al., Binding of Thioflavin T by Albumins: An Underestimated Role of Protein Oligomeric Heterogeneity. Int. J. Biol. Macromol. 2018, 108, 284-290). While this background signal was relatively strong, the incubation of peptide 1 in legumain (1000 ng/mL) spiked plasma still produced a detectable fluorescence enhancement (about 2.5 fold) after the addition of ThT (90 μM). […]
Having a better understanding of the assay's background fluorescence, further studies were performed to optimize the assay performance in plasma. To reduce the background fluorescence, the assay was run in plasma using lower ThT concentrations (see FIGS. 26A and 26B). […] In the optimized assay conditions, a fluorescence enhancement of about 20 fold was obtained in 10% plasma at the legumain concentration of 1000 ng/mL as shown in FIG. 12A. […]

[2] = biological target: T1, legumain; assay: LC-MS analysis of hydrolysis of peptide 1 by legumain; assay type: biochemical; conditions: peptide about 0.5 mg/mL, legumain about 1000 ng/mL, 37° C., about 2 hours
Description: Fluorescence spectroscopy. For fluorescence measurements, peptide 2 was dissolved in DMSO to give a peptide concentration of 10 mg/mL, and it was 5× diluted in DMSO or the assay buffer and fluorescence spectra of the Fmoc groups were recorded using an FP-8500 spectrofluorometer (JASCO, Inc). Liquid chromatography mass spectrometry (LC-MS) measurements. LC-MS measurements were carried using an Acquity UPLC System (Waters) equipped with a SQ Detector 2 (Waters) and a C18 column (Waters). For LC-MS measurement, peptide 1 was first dissolved in ultrapure water containing 25% DMSO and diluted in PBS and MES mixture with or without legumain as described above. Final peptide concentration was about 0.5 mg/mL and legumain concentrations were about 0 ng/mL and about 1000 ng/mL. Samples were incubated at 37° C. for about 2 hours, diluted in HPLC grade water and acetonitrile mixture (1:1) containing 1% formic acid, and loaded to the column.

[3] = Solubility in aqueous solutions; assay type: physicochemical

fluorescence enhancement ([1]; 10% plasma, ThT 25 μM, legumain 1000 ng/mL): about 20 fold
fluorescence enhancement ([1]; 20% plasma spiked with legumain 1000 ng/mL, ThT 90 μM): about 2.5 fold
ON/OFF ratio of the assay ([1]; albumin depleted 20% plasma): about 10
peptide cleaved by legumain (LC-MS) [2]: ~30%
solubility in aqueous solutions [3]: good solubility
Structure (SMILES): C[C@H](NC(=O)[C@H](C)NC(=O)[C@H](CCC(=O)O)NC(=O)[C@H](Cc1ccccc1)NC(=O)[C@H](CCCCN)NC(=O)[C@H](Cc1ccccc1)NC(=O)OCC1c2ccccc2-c2ccccc21)C(=O)N[C@@H](CC(N)=O)C(=O)NCC(=O)N[C@@H](CCC(=O)O)C(=O)N[C@@H](CCC(=O)O)C(=O)NCC(=O)N[C@@H](CO)C(=O)NCC(=O)N[C@@H](CCC(=O)O)C(=O)N[C@@H](CCC(=O)O)C(=O)O [peptide 1] (Fmoc-FKFEAANGEEGSGEE-OH; C-terminus assumed)
